Assay results as given in PubChem BioAssay AID2060902 (Molecular Pharmacology Branch, DTP, NCI, 2025).

Test system: 485368-065-R3-J5-PDC spheroids with HUVEC/MSC, viability
Assay: Anticancer human tumor 485368-065-R3-J5-PDC patient-derived pancreatic carcinoma cell line growth inhibition [RAS]
Details: for IC50: curve of first compound; for viability, T/C: stronger effect = lower value
Outline: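 Agents were tested in combination matrices in half-log decrements from a top concentration at or near clinical Cmax (10 microM if undetermined). Targets were multi-cell spheroids of tumour lines plus HUVEC and MSC stromal cells.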

[1] = second compound 0.000949 µM, first compound 0.0316 µM
[2] = second compound 0.000949 µM, first compound 0.1 µM
[3] = second compound 0.000949 µM, first compound 0.316 µM
[4] = second compound 0.000949 µM, first compound 1 µM
[5] = second compound 0.003 µM, first compound 0.0316 µM
[6] = second compound 0.003 µM, first compound 0.1 µM
[7] = second compound 0.003 µM, first compound 0.316 µM
[8] = second compound 0.003 µM, first compound 1 µM
[9] = second compound 0.00949 µM, first compound 0.0316 µM
[10] = second compound 0.00949 µM, first compound 0.1 µM
[11] = second compound 0.00949 µM, first compound 0.316 µM
[12] = second compound 0.00949 µM, first compound 1 µM
[13] = second compound 0.03 µM, first compound 0.0316 µM
[14] = second compound 0.03 µM, first compound 0.1 µM
[15] = second compound 0.03 µM, first compound 0.316 µM
[16] = second compound 0.03 µM, first compound 1 µM
[17] = second compound 0.0949 µM, first compound 0.0316 µM
[18] = second compound 0.0949 µM, first compound 0.1 µM
[19] = second compound 0.0949 µM, first compound 0.316 µM
[20] = second compound 0.0949 µM, first compound 1 µM
[21] = second compound 0.3 µM, first compound 0.0316 µM
[22] = second compound 0.3 µM, first compound 0.1 µM
[23] = second compound 0.3 µM, first compound 0.316 µM
[24] = second compound 0.3 µM, first compound 1 µM
[25] = second compound 0.000949 µM, first compound 3.16 µM
[26] = second compound 0.000949 µM, first compound 10 µM
[27] = second compound 0.003 µM, first compound 3.16 µM
[28] = second compound 0.003 µM, first compound 10 µM
[29] = second compound 0.00949 µM, first compound 3.16 µM
[30] = second compound 0.00949 µM, first compound 10 µM
[31] = second compound 0.03 µM, first compound 3.16 µM
[32] = second compound 0.03 µM, first compound 10 µM
[33] = second compound 0.0949 µM, first compound 3.16 µM
[34] = second compound 0.0949 µM, first compound 10 µM
[35] = second compound 0.3 µM, first compound 3.16 µM
[36] = second compound 0.3 µM, first compound 10 µM
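Further: spheroids exposed to agents for seven days before readout.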

CCN1CCN(Cc2ccc(Nc3ncc(F)c(-c4cc(F)c5nc(C)n(C(C)C)c5c4)n3)nc2)CC1 + CCn1c(-c2cccnc2C(C)OC)c2c3cc(ccc31)N1CCOC(CC(NC(=O)C(C(C)C)N(C)C(=O)C3(F)CCN(C(=O)C#CC(C)(C)N(C)C)CC3)C(=O)N3CCCC(N3)C(=O)OCC(C)(C)C2)C1
IC50 (second compound 0.000949 µM): > 1 µM | IC50 (second compound 0.003 µM): 0.639 µM | IC50 (second compound 0.00949 µM): 0.941 µM | IC50 (second compound 0.03 µM): 0.693 µM | IC50 (second compound 0.0949 µM): 0.888 µM | IC50 (second compound 0.3 µM): > 1 µM | viability, T/C (second compound 0.000949 µM, first compound 0.00316 µM): 103% | viability, T/C (second compound 0.000949 µM, first compound 0.01 µM): 88.8% | viability, T/C [1]: 103% | viability, T/C [2]: 77.9% | viability, T/C [3]: 63.5% | viability, T/C [4]: 51.5% | viability, T/C (second compound 0.003 µM, first compound 0.00316 µM): 98.4% | viability, T/C (second compound 0.003 µM, first compound 0.01 µM): 91.5% | viability, T/C [5]: 96.4% | viability, T/C [6]: 77.3% | viability, T/C [7]: 58.2% | viability, T/C [8]: 45% | viability, T/C (second compound 0.00949 µM, first compound 0.00316 µM): 96.8% | viability, T/C (second compound 0.00949 µM, first compound 0.01 µM): 100% | viability, T/C [9]: 91.3% | viability, T/C [10]: 84.7% | viability, T/C [11]: 60.9% | viability, T/C [12]: 49.6% | viability, T/C (second compound 0.03 µM, first compound 0.00316 µM): 96.8% | viability, T/C (second compound 0.03 µM, first compound 0.01 µM): 100% | viability, T/C [13]: 95.4% | viability, T/C [14]: 82.6% | viability, T/C [15]: 70.5% | viability, T/C [16]: 40.7% | viability, T/C (second compound 0.0949 µM, first compound 0.00316 µM): 96.8% | viability, T/C (second compound 0.0949 µM, first compound 0.01 µM): 95.1% | viability, T/C [17]: 96.1% | viability, T/C [18]: 83.4% | viability, T/C [19]: 66.3% | viability, T/C [20]: 48% | viability, T/C (second compound 0.3 µM, first compound 0.00316 µM): 96.8% | viability, T/C (second compound 0.3 µM, first compound 0.01 µM): 104% | viability, T/C [21]: 89.3% | viability, T/C [22]: 88.8% | viability, T/C [23]: 63.7% | viability, T/C [24]: 55.8%

C[C@@H](NC(=O)c1ncnc(N)c1Cl)c1ncc(C(=O)Nc2cc(C(F)(F)F)c(Cl)cn2)s1 + CCn1c(-c2cccnc2C(C)OC)c2c3cc(ccc31)N1CCOC(CC(NC(=O)C(C(C)C)N(C)C(=O)C3(F)CCN(C(=O)C#CC(C)(C)N(C)C)CC3)C(=O)N3CCCC(N3)C(=O)OCC(C)(C)C2)C1
IC50 (second compound 0.000949 µM): > 10 µM | IC50 (second compound 0.003 µM): > 10 µM | IC50 (second compound 0.00949 µM): > 10 µM | IC50 (second compound 0.03 µM): > 10 µM | IC50 (second compound 0.0949 µM): > 10 µM | IC50 (second compound 0.3 µM): > 10 µM | viability, T/C [1]: 107% | viability, T/C [2]: 102% | viability, T/C [3]: 106% | viability, T/C [4]: 93.6% | viability, T/C [25]: 92.6% | viability, T/C [26]: 86.4% | viability, T/C [5]: 102% | viability, T/C [6]: 107% | viability, T/C [7]: 102% | viability, T/C [8]: 94.6% | viability, T/C [27]: 106% | viability, T/C [28]: 80.3% | viability, T/C [9]: 102% | viability, T/C [10]: 110% | viability, T/C [11]: 103% | viability, T/C [12]: 105% | viability, T/C [29]: 96.5% | viability, T/C [30]: 89% | viability, T/C [13]: 102% | viability, T/C [14]: 120% | viability, T/C [15]: 106% | viability, T/C [16]: 105% | viability, T/C [31]: 107% | viability, T/C [32]: 94.6% | viability, T/C [17]: 102% | viability, T/C [18]: 111% | viability, T/C [19]: 105% | viability, T/C [20]: 96.5% | viability, T/C [33]: 104% | viability, T/C [34]: 76.1% | viability, T/C [21]: 97.5% | viability, T/C [22]: 118% | viability, T/C [23]: 111% | viability, T/C [24]: 108% | viability, T/C [35]: 106% | viability, T/C [36]: 79.2%

Cc1nc(N2CCC3(CC2)COC(C)C3N)c(CO)nc1Sc1ccnc(N)c1Cl (stereo unspecified) + CCn1c(-c2cccnc2C(C)OC)c2c3cc(ccc31)N1CCOC(CC(NC(=O)C(C(C)C)N(C)C(=O)C3(F)CCN(C(=O)C#CC(C)(C)N(C)C)CC3)C(=O)N3CCCC(N3)C(=O)OCC(C)(C)C2)C1
IC50 (second compound 0.000949 µM): > 10 µM | IC50 (second compound 0.003 µM): > 10 µM | IC50 (second compound 0.00949 µM): > 10 µM | IC50 (second compound 0.03 µM): > 10 µM | IC50 (second compound 0.0949 µM): > 10 µM | IC50 (second compound 0.3 µM): > 10 µM | viability, T/C [1]: 94.1% | viability, T/C [2]: 108% | viability, T/C [3]: 86.1% | viability, T/C [4]: 79.1% | viability, T/C [25]: 78.1% | viability, T/C [26]: 70.2% | viability, T/C [5]: 95.8% | viability, T/C [6]: 98% | viability, T/C [7]: 95.4% | viability, T/C [8]: 84.8% | viability, T/C [27]: 80.3% | viability, T/C [28]: 79.5% | viability, T/C [9]: 90% | viability, T/C [10]: 99.6% | viability, T/C [11]: 97.9% | viability, T/C [12]: 96.2% | viability, T/C [29]: 80.4% | viability, T/C [30]: 72.7% | viability, T/C [13]: 104% | viability, T/C [14]: 96.9% | viability, T/C [15]: 85.3% | viability, T/C [16]: 103% | viability, T/C [31]: 83.9% | viability, T/C [32]: 61.7% | viability, T/C [17]: 90.5% | viability, T/C [18]: 92.8% | viability, T/C [19]: 84.2% | viability, T/C [20]: 95.1% | viability, T/C [33]: 83.9% | viability, T/C [34]: 74.2% | viability, T/C [21]: 110% | viability, T/C [22]: 94.6% | viability, T/C [23]: 83.2% | viability, T/C [24]: 87.2% | viability, T/C [35]: 85.5% | viability, T/C [36]: 63.3%
